The record followed here is ChEMBL document CHEMBL3091343, “Nicotinamide phosphoribosyltransferase inhibitors, design, preparation, and structure-activity relationship” (J Med Chem, 2013).

The subject of one experiment is MCF7. The experiment is described as follows: Cytotoxicity against human MCF-7 cells assessed as growth inhibition after 72 hrs by WST-1 assay. It is filed as functional, cell-based. To be noted: MCF7, 72 h.
In a further experiment the test system is A2780. The experiment is described as follows: Cytotoxicity against human A2780 cells assessed as growth inhibition after 72 hrs by WST-1 assay. It is filed as functional, cell-based. To be noted: A2780, 72 h. On the technique in general: Tetrazolium assays rely on reduction of a dye to a coloured formazan, in cell work by metabolically active cells.

For `O=C(NCCCCCS(=O)(=O)N(OCCN1CCOCC1)C1CCCC1)NCc1cccnc1`, the results for the IC50 with MCF7 and with A2780 were 7 nM and 2.7 nM, respectively.
Turning to `O=C1C(=O)C(Nc2ccncc2)C1NCCCCCCS(=O)(=O)N(OCCN1CCOCC1)C1CCC1` (stereo not given), the IC50 is 29.1 nM with MCF7 and 0.2 nM in the experiment on A2780.
Take `N#C/N=C(\NCCCCCCS(=O)(=O)N(OCCN1CCOCC1)C1CCCC1)Nc1ccncc1`: the IC50 in the experiment with A2780 was found to be 0.0041 nM.
In the case of `O=C(NCCCCCCS(=O)(=O)N(OCCN1CCOCC1)C1CCCC1)NCc1cccnc1`, the IC50 with MCF7 is 5.8 nM; with A2780, 0.58 nM.
On to `N#C/N=C(\NCCCCCCS(=O)(=O)N(OCCN1CCOCC1)C1CCCCC1)Nc1cccnc1`, for which the concentration for half-maximal inhibition (IC50) worked out at 2.9 nM in the experiment with MCF7 and 0.51 nM in the experiment with A2780.
Take `N#C/N=C(\NCCCCCS(=O)(=O)N(OCCN1CCOCC1)C1CCCC1)Nc1ccncc1`: the results for the IC50 with MCF7 and in the experiment on A2780 were 0.041 nM and 0.022 nM, respectively.
The matching figures for `N#C/N=C(\NCCCCCCS(=O)(=O)N(OCCN1CCOCC1)C1CCC1)Nc1ccncc1`: 0.007 nM and 0.049 nM.
`O=C1C(=O)C(Nc2ccncc2)C1NCCCCCCS(=O)(=O)N(OCCN1CCOCC1)C1CCCC1` (stereo not given): the IC50 in the experiment with MCF7 came out at 13.7 nM; in the experiment with A2780 it was 0.59 nM.
The matching figures for `N#C/N=C(\NCCCCCCS(=O)(=O)N(CCCN1CCOCC1)C1CCC1)Nc1ccncc1`: 0.1 nM and 0.091 nM.
On to `N#C/N=C(\NCCCCCCC(=O)N(OCCN1CCOCC1)C1CCCCC1)Nc1ccccc1`, for which the IC50 in the experiment on MCF7 was determined as 1020 nM; with A2780 it was 98 nM.
For the compound `O=C1C(=O)C(Nc2ccncc2)C1NCCCCCS(=O)(=O)N(OCCN1CCOCC1)C1CCCC1` (stereo not given), the results for the IC50 in the experiment on MCF7 and in the experiment with A2780 were 46.3 nM and 0.38 nM, respectively.
Take `O=C(NCCCCCS(=O)(=O)N(OCCN1CCOCC1)C1CCCCC1)NCc1cccnc1`: the IC50 is 6.5 nM in the experiment on MCF7 and 4.6 nM in the experiment with A2780.
With `O=C(NCCCCCCCS(=O)(=O)N(OCCN1CCOCC1)C1CCCCC1)NCc1cccnc1`, the IC50 with MCF7 was 3.6 nM; in the experiment on A2780, 0.31 nM.
In the case of `O=C(NCCCCCCCS(=O)(=O)N(OCCN1CCOCC1)C1CCCCC1)Nc1ccncc1`, the IC50 worked out at 7.4 nM in the experiment with MCF7 and 1.8 nM in the experiment with A2780.
On to `O=C(NCCCCCS(=O)(=O)N(OCCN1CCOCC1)C1CCC1)NCc1cccnc1`, for which the IC50 turned out to be 49 nM with MCF7 and 13 nM with A2780.
In the case of `N#CN=C(NCCCCCCOc1ccc(Cl)cc1)Nc1ccncc1` [CHS-828], the IC50 in the experiment with MCF7 is 1.6 nM; in the experiment with A2780, 0.56 nM.
The matching figures for `O=C1C(=O)C(Nc2ccncc2)C1NCCCCCC(=O)N(Cc1ccccc1)OCCN1CCOCC1` (stereo not given): 23 nM and 0.68 nM.
As for `O=C(NCCCCCCC(=O)N(OCCN1CCOCC1)C1CCCCC1)NCc1cccnc1`, the IC50 stood at 0.37 nM with MCF7 and 0.27 nM in the experiment on A2780.
The matching figures for `O=C(NCCCCCS(=O)(=O)N(OCCN1CCOCC1)C1CCCCC1)Nc1ccncc1`: 28 nM and 3.4 nM.
`O=C1C(=O)C(Nc2ccncc2)C1NCCCCCCC(=O)N(Cc1ccccc1)OCCN1CCOCC1` (stereo not given): the IC50 with MCF7 amounted to 12.3 nM; with A2780, 0.29 nM.
For `C[C@@H](CCCCCN/C(=N\C#N)Nc1ccncc1)C(=O)NOC1CCCCC1`, in that order: 1 nM and 0.08 nM.
With `N#C/N=C(\NCCCCCC(=O)N(Cc1ccccc1)OCCN1CCOCC1)Nc1ccncc1`, the IC50 in the experiment on MCF7 worked out at 0.021 nM; with A2780, 0.081 nM.
In the case of `O=S(=O)(CCCCCCNC(=S)Nc1ccncc1)N(OCCN1CCOCC1)C1CCCC1`, the IC50 with MCF7 was determined as 0.31 nM; with A2780, 0.16 nM.
On to `N#C/N=C(\NCCCCCCCS(=O)(=O)N(OCCN1CCOCC1)C1CCCCC1)Nc1ccncc1`, for which the values for the IC50 with MCF7 and with A2780 were 0.29 nM and 0.089 nM, respectively.
Regarding `O=C(NCCCCCCS(=O)(=O)N(CCCN1CCOCC1)C1CCC1)NCc1cccnc1`, the IC50 was 8.7 nM in the experiment on MCF7 and 1.7 nM with A2780.
`O=C(CCCCCCNc1c(Nc2ccncc2)c(=O)c1=O)N(OCCN1CCOCC1)C1CCCCC1`: in the experiment with A2780, the IC50 turned out to be 0.03 nM.

Broadly, the IC50 is the concentration that inhibits the measured activity by half.
